The source of these data is patent publication US6821976B2, “S-6-hydroxy-buspirone” (Bristol-Myers Squibb Company, priority 2001, dated 2004).

Series [1] is described as follows: Clinical studies in volunteers orally dosed with buspirone, blood plasma levels. Type of series: in vivo, human. Particulars: compared to buspirone blood plasma levels.
Series [2] has as its system Harlan Sprague-Dawley rat pups. The experiment in a line: Rat pup isolation-induced ultrasonic vocalization test. Particulars: for anxiolytic activity (ultrasonic vocalizations emitted by rat pups): dose levels of 0.3 and 1 mg/kg s.c. The class given is in vivo. Here is the method:
Harlan Sprague-Dawley rat pups (male and female) were housed in polycarbonate cages with the dam until 9-11 days old. Thirty minutes before testing, pups were removed from the dam, placed into a new cage with a small amount of home bedding and brought into the lab and placed under a light to maintain body temperature at 37° C. Pups were then weighed, sexed, marked and returned to the litter group until behavioral assessment. Testing took place in a Plexiglas recording chamber that contained a metal plate maintained at (18-20° C.) with a 5×5 cm grid drawn on the plate. A microphone was suspended 10 cm above the plate to record ultrasonic vocalizations. Ultrasonic calls were recorded using the Noldus UltraVox system providing online analysis of the frequency and duration of calls. The number of grid cells entered by the pup was also collected by visual scoring. […] Immediately following the collection of the baseline measures, pups were injected with vehicle or drug subcutaneously at the nape of the neck and returned to its littermates. Thirty minutes later, pups were retested on each of the dependent measures (vocalization and grid cell crossings) to assess drug effects. Unless otherwise specified, each pup was used only once. Baseline differences and percent change from baseline for the frequency of ultrasonic vocalizations and grid cell crossings were analyzed using a one-way ANOVA. Bonferroni/Dunn post hoc comparisons were performed to assess the acute drug effects with vehicle control. Log-probit analysis was used to estimate the dose (milligrams per kilogram) of each agonist predicted to inhibit isolation-induced ultrasonic vocalizations by 50% (ID50). All comparison were made with an experimental type I error rate (α) set at 0.05.
Doses for each drug were administered in an irregular order across several litters. S-6-hydroxy-buspirone and racemic 6-hydroxy-buspirone were dissolved in physiological saline (0.9% NaCl; vehicle). All injections were administered subcutaneously in a volume of 10 ml/kg. Doses of the drug refer to weight of the salt.

The next series has as its target T1, human 5-HT1A receptor (Homo sapiens, UniProt P08908).
T1 construct: expressed in transfected cells; host or cells: HEK293 cells
T1 sequence (P08908 1-422): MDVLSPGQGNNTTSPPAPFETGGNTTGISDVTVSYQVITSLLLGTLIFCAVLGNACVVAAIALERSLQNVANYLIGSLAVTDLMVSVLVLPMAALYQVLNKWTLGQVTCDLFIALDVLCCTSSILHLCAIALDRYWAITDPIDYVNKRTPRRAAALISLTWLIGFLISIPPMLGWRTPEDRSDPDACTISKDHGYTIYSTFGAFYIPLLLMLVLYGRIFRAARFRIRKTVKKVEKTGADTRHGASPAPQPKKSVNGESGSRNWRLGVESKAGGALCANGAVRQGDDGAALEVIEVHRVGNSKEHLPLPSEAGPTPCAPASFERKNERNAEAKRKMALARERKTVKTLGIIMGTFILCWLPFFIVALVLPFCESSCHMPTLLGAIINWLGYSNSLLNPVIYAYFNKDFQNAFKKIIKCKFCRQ
Nature of the series: 5-HT1A receptor binding assay. Particulars: preclinical studies. Here is the method: Membranes are prepared for binding using the human 5-HT1A receptor expressed in HEK293 cells. Cells are collected and ruptured using a dounce homogenizer. The cells are spun at 18000×g for 10 minutes and the pellet is resuspended in assay buffer, frozen in liquid nitrogen and kept at −80° C. until the day of the assay.
A total of 30 ug protein is used per well. The assay is carried out in 96-deep-well plates. The assay buffer is 50 mM HEPES containing 2.5 mM MgCl2 and 2 mM EGTA. The membrane preparation is incubated at 25° C. for 60 minutes with 0.1 nM to 1000 nM test compound and 1 nM 3H-8-OH-DPAT. […] serotonin serves as blocking agent to determine non-specific binding. The reaction is terminated by the addition of 1 ml of ice cold 50 mM HEPES buffer and rapid filtration through a Brandel Cell Harvester using Whatman GF/B filters. The filter pads are counted in an LKB Trilux liquid scintillation counter. IC50 values are determined using non-linear regression by Excel-fit.

Series [3] in a line: Pharmacokinetic studies with 6-hydroxy-buspirone, clearance from the bloodstream. Particulars: in vivo.

The structures appear in SMILES notation.

As for `O=C1CC2(CCCC2)C(O)C(=O)N1CCCCN1CCN(c2ncccn2)CC1` (racemic) [6-hydroxy-buspirone], the “time course of blood plasma levels” value in series [1] is listed as “sustained”. Besides, in series [2], the “anxiolytic activity (ultrasonic vocalizations emitted by rat pups)” value is reported as “Statistically significant anxiolytic activity”. In addition, the “anxiolytic response in the rat pup ultrasonic vocalization test” value in series [2] (functional testing) is on record as “dose-dependent anxiolytic response”. Further, the “animal movement, measured by crossing grid boundary lines” value in series [2] (rat pups, compared to the animals dosed with the single enantiomer) is reported as “appeared to be reduced”. Further, the “affinity for the human 5-HT1A receptor” value at human 5-HT1A receptor is listed as “strong affinity”.
As to `O=C1CC2(CCCC2)[C@H](O)C(=O)N1CCCCN1CCN(c2ncccn2)CC1` [S-6-hydroxy-buspirone], the “anxiolytic activity (ultrasonic vocalizations emitted by rat pups)” value in series [2] is listed as “Statistically significant anxiolytic activity”. In series [3], the “clearance from the bloodstream compared with the R-enantiomer” value is given as “cleared more slowly” and the “reduced clearance of S- over R-” value was “about three-fold”.
For the compound `O=C1CC2(CCCC2)CC(=O)N1CCCCN1CCN(c2ncccn2)CC1` [buspirone], the “affinity for the human 5-HT1A receptor” value at human 5-HT1A receptor was “strong affinity”.
